# Test results from article PMC3323675 (Biochemistry, 2012).
# What was measured:
# [1] = target: T1, geranyl diphosphate C-methyltransferase (GPPMT) (Streptomyces coelicolor, UniProt Q9F1Y5); test: radiometric methyl transfer, pentane extraction, scintillation counting; type: biochemical; settings: 10 mM MgCl2, pH 7.0, 30 °C
# [2] = target: T1, geranyl diphosphate C-methyltransferase (GPPMT); test: X-ray crystal structure, […] Å; type: binding; settings: with SAH and Mg2+; monomers A, D, H, J only, partial occupancy
# [3] = target: T1, geranyl diphosphate C-methyltransferase (GPPMT); test: X-ray crystal structure, […] Å; type: binding; settings: with SAH and Mg2+; isoprenoid substrate site
# T1 sequence (Q9F1Y5 whole entry): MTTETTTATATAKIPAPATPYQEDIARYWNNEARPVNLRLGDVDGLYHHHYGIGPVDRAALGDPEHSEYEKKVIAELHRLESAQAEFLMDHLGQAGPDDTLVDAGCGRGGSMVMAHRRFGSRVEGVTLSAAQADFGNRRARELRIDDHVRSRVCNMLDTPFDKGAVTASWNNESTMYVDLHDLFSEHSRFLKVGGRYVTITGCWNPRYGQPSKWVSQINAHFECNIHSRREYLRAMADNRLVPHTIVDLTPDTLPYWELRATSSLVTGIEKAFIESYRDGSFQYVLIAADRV
structure (smiles),measurement,setting,value
"CC(C)=CCC/C(C)=C/COP(=O)(O)OP(=O)(O)O [GPP, geranyl diphosphate]",KM,[1]; 60 µM SAM,Kinetic parameters (Vmax and KM) were obtained for GPP and SAM
same,"X-ray crystal structure, 2.05 Å",[2],"sufficient electron density to model GPP is observed only in monomers A, D, H, and J"
"CC(C)=CCC/C(C)=C/CSP(=O)(O)OP(=O)(O)O [GSPP, geranyl-S-thiolodiphosphate]","X-ray crystal structure, 1.82 Å",[3],GSPP is bound with full occupancy in all monomers
"C[S+](CC[C@H](N)C(=O)O)C[C@H]1O[C@@H](n2cnc3c(N)ncnc32)[C@H](O)[C@@H]1O (stereo partly drawn) [SAM, S-adenosyl-L-methionine]",KM,"[1]; 60 µM GPP, labelled compound",Kinetic parameters (Vmax and KM) were obtained for GPP and SAM
